Laboratory results taken from ChEMBL document CHEMBL1151007, “Synthesis and in vitro cytotoxicity of (RS)-20-desethyl-20-substituted camptothecin analogues” (Bioorg Med Chem Lett, 1996).
pIC50: −log10 of the molar value.

Columns and labels:
Format in all cases: functional, cell-based
A 172 = assay: In vitro cytotoxicity against A172 human tumor cell lines.
Caov-3 cell line = assay: In vitro cytotoxicity against CAOV-3 human tumor cell line.
DLD-1 = assay: In vitro cytotoxicity against DLD-1 human tumor cell lines.
[1] = system: KATO III stomach cancer cell line; assay: In vitro cytotoxicity against KATO-III human tumor cell line.
L1210 = assay: In vitro cytotoxicity against L1210 mouse leukemia tumor cell line.

| SMILES | pIC50 (A 172) | pIC50 (Caov-3 cell line) | pIC50 (DLD-1) | pIC50 [1] | pIC50 (L1210) |
| --- | --- | --- | --- | --- | --- |
| O=C(Nc1ccccc1)OCCC1(O)C(=O)OCc2c1cc1n(c2=O)Cc2cc3ccccc3nc2-1 (stereo not given) | 7.22 | 5.43 | 5.92 | 5.27 | 5.16 |
| COCCOCOCCC1(O)C(=O)OCc2c1cc1n(c2=O)Cc2cc3ccccc3nc2-1 (stereo not given) | 5.39 | 5.72 | 4.82 | 4.28 | 5.30 |
| O=C(Nc1ccccc1)OCC1(O)C(=O)OCc2c1cc1n(c2=O)Cc2cc3ccccc3nc2-1 (stereo not given) | 5.56 | 5.80 | 5.37 | 4.88 | 5.56 |
| CC(C)NC(=O)OCC1(O)C(=O)OCc2c1cc1n(c2=O)Cc2cc3ccccc3nc2-1 (stereo not given) | 4.95 | 4.65 | 4.63 | 4.14 | 5.22 |
| CC(C)NC(=O)OCCC1(O)C(=O)OCc2c1cc1n(c2=O)Cc2cc3ccccc3nc2-1 (stereo not given) | 5.28 | 5.85 | 4.96 | 4.33 | 5.03 |
| CCOCOCCC1(O)C(=O)OCc2c1cc1n(c2=O)Cc2cc3ccccc3nc2-1 (stereo not given) | 5.86 | 5.73 | 5.97 | 4.72 | 5.85 |
| COCC(=O)OCC1(O)C(=O)OCc2c1cc1n(c2=O)Cc2cc3ccccc3nc2-1 (stereo not given) | 4.75 | 4.89 | 4.33 | < 4.00 | 4.87 |
| COCC(=O)OCCC1(O)C(=O)OCc2c1cc1n(c2=O)Cc2cc3ccccc3nc2-1 (stereo not given) | 5.16 | 5.19 | 4.50 | 5.52 | 4.61 |
| COCCOCOCC1(O)C(=O)OCc2c1cc1n(c2=O)Cc2cc3ccccc3nc2-1 (stereo not given) | 5.36 | 5.22 | 4.59 | 4.08 | 4.65 |
| CC(=O)OCC1(O)C(=O)OCc2c1cc1n(c2=O)Cc2cc3ccccc3nc2-1 (stereo not given) | 5.82 | 6.09 | 5.91 | 5.03 | 5.77 |
| CC(=O)OCCC1(O)C(=O)OCc2c1cc1n(c2=O)Cc2cc3ccccc3nc2-1 (stereo not given) | 5.40 | 5.37 | 5.15 | 6.01 | 5.29 |
| CCOCOCC1(O)C(=O)OCc2c1cc1n(c2=O)Cc2cc3ccccc3nc2-1 (stereo not given) | 4.95 | 4.75 | 4.77 | 4.39 | 5.47 |
| COCOCC1(O)C(=O)OCc2c1cc1n(c2=O)Cc2cc3ccccc3nc2-1 (stereo not given) | 5.08 | 5.40 | 5.62 | 4.63 | 5.78 |
| O=C1OCc2c(cc3n(c2=O)Cc2cc4ccccc4nc2-3)C1(O)CO (stereo not given) | 5.14 | 5.66 | 4.75 | 4.94 | 5.40 |
| O=C1OCc2c(cc3n(c2=O)Cc2cc4ccccc4nc2-3)C1(O)CCO (stereo not given) | 5.35 | 5.20 | 5.60 | 5.01 | 5.20 |
